The results in this text go back to article PMC4014701 (Pharmaceuticals, 2014).

The nature of data set [1]: Solubility study in distilled deionized water (DDW). To be noted: for Solubility, fold higher relative to LPV: DDW; for Solubility in DDW: saturated solution, room temperature, 24 h; for solubility at 24 h: distilled deionized water, water, thermodynamic from solid. As for the experimental part:
Aqueous solubility study of prodrugs was performed according to the published protocol from our laboratory. Saturated solution of each prodrug was prepared in DDW in siliconized tubes. Tubes were placed in shaking water bath at room temperature (RT) for 24 h. Tubes were centrifuged at 10,000 rpm for 10 min to separate undissolved prodrugs. The supernatant was separated, filtered through 0.45 µm membrane (Nalgene syringe filter) and analyzed with HPLC after appropriate dilutions.
(§1) Aqueous solubility and buffer stability samples were measured with reversed phase HPLC technique. Waters 515 pump (Waters, Milford, MA, USA) connected to a UV detector (Absorbance Detector Model UV-C, RAININ, Dynamax, Palo Alto, CA, USA) was employed. A C(18) Kinetex column (100 × 4.6 mm, 2.6 µ; Phenomenex, Torrance, CA, USA) was pumped with mobile phase (1:1) acetonitrile and water (0.1% trifluoroacetic acid) at a flow rate of 0.3 mL/min. Analytes were detected with UV detection at a wavelength of 210 nm.

The nature of data set [2]: Buffer stability (chemical hydrolysis) in DPBS. To be noted: for Degradation half life: DPBS; for half-life at 50 µM: DPBS buffer. On the procedure: Chemical hydrolysis study of prodrugs was carried out according to the previously published protocols from our laboratory. Degradation rate constant and half-life (t1/2) of prodrugs were determined at various pH. […] Microcentrifuge tubes were placed in shaking water bath (60 rpm) at 37 °C. Samples (100 µL) were withdrawn at predetermined time points and stored at −80° C until further analysis. Prodrug concentrations remaining were plotted versus time in order to calculate degradation rate constants.
as §1

Data set [3] has as its target T1, P-gp (MDCK-MDR1 cells) (Homo sapiens, UniProt P08183). The data set is described as follows: Transepithelial transport across MDCK-MDR1 cells. On the procedure: Samples were stored at −80 °C until further analysis.
Samples were extracted with liquid–liquid extraction technique.

Data set [4] has as its system CYP3A4 (rat liver microsomes). The data set can be described thus: Rat liver microsomal stability. Particulars: for Half life in liver microsomes, fold higher compared to LPV: time dependent study. On the procedure: (§2) One mL of microsomal solution was generated by adding microsomal protein (0.3 mg/mL), magnesium chloride (5 mM), glucose 6-phosphate (5 mM), b-NADP1 (1 mM), and glucose 6-phosphate dehydrogenase (1 U/mL) in phosphate buffer (100 mM, pH 7.4). […] The metabolic reaction was initiated by adding the NADPH generating system. NADPH generating system was freshly prepared by adding G-6-P, G-6-P DH and NADP in DDW. At predetermined time points, metabolic reaction was arrested by adding equal volumes of ice-cold acetonitrile to the sample. Samples were stored at −80 °C until further analysis by LCMS/MS technique.
(§3) This study was performed according to the previously published protocols from our laboratory. At predetermined time points, about 100 μL of samples were withdrawn and equal volume of acetonitrile was added to stop the degradation process. Degradation study was conducted for a period of 2 h. Samples were stored at −80 °C until further analysis.
(§4) Enzymatic degradation was arrested by adding equal amount of acetonitrile and samples were stored in −80 °C until further analysis.
(§5) Rat liver microsomes were employed at the concentration of 0.3 mg/mL. […] Liver microsomal solution was incubated with ketoconazole for 15 min prior to the initiation of stability study.
On the technique in general: Liver microsomes are a subcellular fraction often used to study metabolism.

The target in data set [5] is T2, MRP2 (MDCK-MRP2 cells) (Homo sapiens, UniProt Q92887). The data set is described as follows: Transepithelial transport across MDCK-MRP2 cells.
Procedure: Transwell® inserts were coated with type 1 rat tail collagen (100 µg/cm^2). Cells were seeded at a density of 250,000 cells per well. Transport studies were conducted across MDCK-MDR1 and MDCK-MRP2 cells in presence and absence of efflux inhibitors for a period of 3 h at 37 °C. Prior to the initiation of transport study, cell monolayer integrity was evaluated by monitoring transepithelial electric resistance (TEER), with an EVOM (epithelial volt ohmmeter from World Precision Instruments, Sarasota, FL, USA). TEER values of the cell monolayer were approximately 250 Ω*cm^2. Monolayers were washed thoroughly with DBPS (pH7.4) for 15 min at 37 °C, three times. […] At predetermined time points (30, 60, 120 and 180 min), 100 µL sample was withdrawn from the receiving chamber and replaced with fresh DPBS to maintain sink conditions. Samples were stored at −80 °C until further analysis. To determine the effect of efflux inhibitors, cells were treated GF 120918 (MDCK-MDR1) and MK 571 (MDCK-MRP2) prior to initiation of the transport study.
Samples were extracted with liquid–liquid extraction technique. About, 50 μL of verapamil (200 ng) was added as an internal standard to each sample. Analytes were extracted by vortexing with 800 μL water saturated ethyl acetate for 2.5 min. Following centrifugation at 10,000 rpm for 7 min, approximately 600 µL of ethyl acetate layer was collected and evaporated under reduce pressure for 45 min. The residue was reconstituted in 100 μL of acetonitrile (80%) and water (20%) containing 0.1% formic acid. Ten microliters of reconstituted samples were injected in LCMS/MS. Similarly, standard solutions were extracted from DPBS and quantified with LCMS/MS. […]
Transepithelial permeability was determined by plotting cumulative amount of analyte transported against time. […]
Transepithelial permeability was calculated by normalizing the steady-state flux with the donor concentration (Cd) according to Equation (2): Transepithelial permeability = flux/Cd (2)
Data set [6] has as its target T1, P-gp (MDCK-MDR1 cells). The data set can be described thus: Cellular uptake of unlabelled LPV and prodrugs in MDCK-MDR1 cells. The class given is in vitro ADME. Further details: A. Schinkel and P. Borst (Netherlands Cancer Institute); host or cells: MDCK (MDCK-MDR1), retrovirally transfected. To be noted: 5 µM, 30 min. On the procedure: About 500 µL of DMEM was added to each well and plates were kept in −80 °C overnight for cell lysis.

Another data set deals with MDCK-WT cells. The data set can be described thus: Cytotoxicity, MTS assay. The class given is cell-based. Particulars: 4 h incubation; for Reduction in absorbance (positive controls): medium containing 10% DMSO or 0.1% Triton-X. As for the experimental part:
Cytotoxicity of prodrugs was determined in MDCK-WT cells with MTS assay based cytotoxicity kit. Briefly, cells were grown overnight in 96 well plates at a density of 20,000 cells per well prior to drug and prodrug addition. […] Cells were then incubated for 4 h at 37 °C. Following incubation, 20 μL of MTS stock solution was added to each well and incubated for 2 h at 37 °C. […] The quantity of formazan product as measured by absorbance is directly proportional to the number of viable cells in test samples.

The test system of the next data set is CYP3A4. The data set is described as follows: Rat liver microsomal stability. To be noted: Sprague Dawley, rat, pH 7.4. As for the experimental part: as §2, §3, §4, §5
Data set [7] deals with T2, MRP2 (MDCK-MRP2 cells). The data set can be described thus: [3H]-LPV uptake in MDCK-MRP2 cells. The format is cell-based. Details: A. Schinkel and P. Borst (Netherlands Cancer Institute); host or cells: MDCKII (MDCKII-MRP2), retrovirally transfected. Particulars: for [3H]-LPV uptake, fold enhancement in presence of inhibitor: DPBS pH 7.4, 37 °C. On the procedure:
(§6) Confluent cells were then trypsinized and plated at a density of 3 × 10^6 cells in 12 well culture plates. Medium was replaced every alternate day until cells reached confluency (6–7 days). Cellular uptake studies were performed on confluent cell monolayers according to previously published protocol from our laboratory. Briefly, medium was removed and cell monolayer was washed with 2 mL of DPBS (130 mM NaCl, 0.03 mM KCl, 7.5 mM Na2HPO4, 1.5 mM KH2PO4, 1 mM CaCl2, 0.5 mM MgSO4, and 5 mM glucose, pH 7.4) three times at 37 °C (each wash of 10 min). […] Following incubation, radioactive solution was quickly removed and plates were washed with ice-cold stop solution (210 mM KCl, 2 mM HEPES, pH of 7.4) to arrest the uptake process. One mL of lysis buffer (0.1% Triton-X solution in 0.3% NaOH) was added to each well and plates were stored overnight at RT. Later, 500 µL solutions were transferred to scintillation vials containing 3 mL of scintillation cocktail. The radioactivity associated with cells was analyzed with a scintillation counter (Beckman Instruments Inc., Model LS-6500; Fullerton, CA, USA). Uptake rate was normalized to protein count which was quantified with a BioRad protein estimation kit.
(§7) Prior to initiation of uptake studies, cells were treated with efflux inhibitors for a period of 15 min. Uptake study was then initiated according to a procedure described in section 2.2.5.

Data set [8] concerns the target T1, P-gp (MDCK-MDR1 cells). To be noted: MDCK-MDR1, DPBS pH 7.4, 37 °C. On the procedure: as §6, §7

Each structure is given as a SMILES string. ≈ marks a conversion by molar mass, not a printed value. Where two headings read alike, the source gives them in different places.

T2 sequence (Q92887 whole entry): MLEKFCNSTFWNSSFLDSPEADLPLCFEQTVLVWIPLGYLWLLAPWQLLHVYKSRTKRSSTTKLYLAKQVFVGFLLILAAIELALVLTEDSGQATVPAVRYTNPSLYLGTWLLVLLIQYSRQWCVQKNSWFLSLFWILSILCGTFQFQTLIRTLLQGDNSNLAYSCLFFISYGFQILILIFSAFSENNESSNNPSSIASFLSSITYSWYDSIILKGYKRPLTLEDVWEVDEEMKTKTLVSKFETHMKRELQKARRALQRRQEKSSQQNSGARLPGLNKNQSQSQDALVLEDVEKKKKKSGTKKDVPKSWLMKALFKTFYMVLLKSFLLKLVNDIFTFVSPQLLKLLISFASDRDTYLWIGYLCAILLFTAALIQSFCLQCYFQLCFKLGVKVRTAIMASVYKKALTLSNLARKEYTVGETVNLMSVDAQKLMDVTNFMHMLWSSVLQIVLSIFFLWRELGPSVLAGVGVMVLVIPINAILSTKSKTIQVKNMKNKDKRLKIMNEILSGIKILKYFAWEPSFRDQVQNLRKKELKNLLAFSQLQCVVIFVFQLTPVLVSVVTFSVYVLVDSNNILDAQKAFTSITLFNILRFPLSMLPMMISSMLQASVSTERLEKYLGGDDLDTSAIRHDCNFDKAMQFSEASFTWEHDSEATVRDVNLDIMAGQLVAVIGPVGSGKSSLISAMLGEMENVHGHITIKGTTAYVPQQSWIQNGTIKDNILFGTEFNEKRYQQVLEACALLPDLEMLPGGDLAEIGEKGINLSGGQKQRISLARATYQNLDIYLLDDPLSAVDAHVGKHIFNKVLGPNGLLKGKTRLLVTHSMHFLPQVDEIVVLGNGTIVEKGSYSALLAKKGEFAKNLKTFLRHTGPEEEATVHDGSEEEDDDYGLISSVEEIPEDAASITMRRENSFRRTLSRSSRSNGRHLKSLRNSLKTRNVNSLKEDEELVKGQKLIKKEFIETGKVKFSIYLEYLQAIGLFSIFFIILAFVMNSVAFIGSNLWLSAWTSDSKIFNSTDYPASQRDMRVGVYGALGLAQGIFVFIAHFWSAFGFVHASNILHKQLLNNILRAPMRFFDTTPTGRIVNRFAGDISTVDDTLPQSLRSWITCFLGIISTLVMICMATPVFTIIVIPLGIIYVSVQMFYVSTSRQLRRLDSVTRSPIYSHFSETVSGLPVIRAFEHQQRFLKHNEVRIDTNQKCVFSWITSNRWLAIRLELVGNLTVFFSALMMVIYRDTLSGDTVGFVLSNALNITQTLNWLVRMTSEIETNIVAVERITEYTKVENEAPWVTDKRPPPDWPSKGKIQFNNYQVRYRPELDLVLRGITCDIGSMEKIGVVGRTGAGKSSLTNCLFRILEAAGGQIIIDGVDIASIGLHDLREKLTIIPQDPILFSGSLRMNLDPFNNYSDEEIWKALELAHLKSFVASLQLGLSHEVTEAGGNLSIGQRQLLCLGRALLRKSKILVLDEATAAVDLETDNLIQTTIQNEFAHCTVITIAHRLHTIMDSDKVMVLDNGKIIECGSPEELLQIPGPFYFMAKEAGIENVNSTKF
T1 sequence (P08183 whole entry): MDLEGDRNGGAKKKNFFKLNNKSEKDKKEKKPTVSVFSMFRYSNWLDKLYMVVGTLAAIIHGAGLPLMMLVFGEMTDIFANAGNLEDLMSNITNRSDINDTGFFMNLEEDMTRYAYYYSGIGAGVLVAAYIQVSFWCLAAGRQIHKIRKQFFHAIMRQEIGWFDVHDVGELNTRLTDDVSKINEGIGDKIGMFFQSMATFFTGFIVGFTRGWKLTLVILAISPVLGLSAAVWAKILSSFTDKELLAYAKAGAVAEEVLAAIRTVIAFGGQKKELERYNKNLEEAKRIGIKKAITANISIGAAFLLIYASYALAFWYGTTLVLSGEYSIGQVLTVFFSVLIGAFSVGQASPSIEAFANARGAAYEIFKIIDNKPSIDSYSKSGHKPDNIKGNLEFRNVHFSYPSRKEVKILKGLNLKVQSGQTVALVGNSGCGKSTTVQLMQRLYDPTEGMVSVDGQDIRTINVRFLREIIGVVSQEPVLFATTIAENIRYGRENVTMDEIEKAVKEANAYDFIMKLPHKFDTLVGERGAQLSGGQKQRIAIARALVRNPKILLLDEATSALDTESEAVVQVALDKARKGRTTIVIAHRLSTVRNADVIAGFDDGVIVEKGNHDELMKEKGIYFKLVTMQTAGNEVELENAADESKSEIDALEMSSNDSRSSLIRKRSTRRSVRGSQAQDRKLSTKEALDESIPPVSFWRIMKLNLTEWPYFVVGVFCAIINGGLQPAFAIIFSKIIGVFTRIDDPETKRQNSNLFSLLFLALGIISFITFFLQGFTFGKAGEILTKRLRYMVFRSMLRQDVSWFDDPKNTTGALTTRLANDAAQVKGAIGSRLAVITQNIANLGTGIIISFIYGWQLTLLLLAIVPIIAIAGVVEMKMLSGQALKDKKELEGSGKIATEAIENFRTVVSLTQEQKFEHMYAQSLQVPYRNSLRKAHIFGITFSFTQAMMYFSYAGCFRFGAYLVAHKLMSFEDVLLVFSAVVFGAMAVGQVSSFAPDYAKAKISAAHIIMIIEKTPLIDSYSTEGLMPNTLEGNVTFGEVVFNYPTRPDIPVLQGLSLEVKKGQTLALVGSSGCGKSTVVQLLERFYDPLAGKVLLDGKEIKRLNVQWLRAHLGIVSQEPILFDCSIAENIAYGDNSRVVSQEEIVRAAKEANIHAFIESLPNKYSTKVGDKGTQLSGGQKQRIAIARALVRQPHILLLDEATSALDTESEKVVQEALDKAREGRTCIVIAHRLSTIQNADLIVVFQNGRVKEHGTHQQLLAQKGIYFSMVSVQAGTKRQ

Turning to `Cc1cccc(C)c1OCC(=O)NC(Cc1ccccc1)C(CC(Cc1ccccc1)NC(=O)C(C(C)C)N1CCCNC1=O)OC(=O)C(N)Cc1c[nH]c2ccccc12` (stereo not shown) [Trp-LPV, tryptophan-LPV], the “Solubility, fold higher relative to LPV” value in data set [1] was roughly 7 fold. In data set [1], the “Solubility in DDW” value stood at 274 ± 11 µg/mL (≈ 336 µM). Besides, the Degradation half life is reported as 123 ± 14 h in data set [2] (pH 4, 37 °C); 50 ± 9 h in data set [2] (pH 5.5, 37 °C); 5.4 ± 0.3 h in data set [2] (pH 7.4, 37 °C). The “A-B permeability, fold higher relative to LPV” value on P-gp (MDCK-MDR1 cells) [3] is roughly 1.8 fold; on MRP2 (MDCK-MRP2 cells) [5], roughly 1.7 fold. In [4] (read-out: Km (affinity constant), 0.5–40 µM, 5 min, microsomes 0.3 mg/mL, Michaelis-Menten fit), the Km was roughly 13.2 µM. The “Half life in liver microsomes, fold higher compared to LPV” value (“Half life … fold higher compared to LPV” for short) in data set [4] was 1.6 to 1.8 fold. Moreover, the “Cellular uptake, fold higher relative to LPV” value on P-gp (MDCK-MDR1 cells) [6] is given as roughly 1.8 fold.
For `C[S+](C)[O-]` [DMSO], the “Reduction in absorbance (positive controls)” value with MDCK-WT cells was 30%.
`CCC(C)C(N)C(=O)OC(CC(Cc1ccccc1)NC(=O)C(C(C)C)N1CCCNC1=O)C(Cc1ccccc1)NC(=O)COc1c(C)cccc1C` (stereo not shown) [Ile-LPV, isoleucine-LPV]: the “Solubility, fold higher relative to LPV” value in data set [1] was “about 15 fold”. Further, the solubility at 24 h in data set [1] turned out to be 625 ± 27 µg/mL (≈ 842 µM). For the same molecule, the half-life at 50 µM in [2] (pH 4) was 101 ± 29 h; in data set [2] (pH 5.5) it was 53 ± 10 h; in [2] (pH 7.4) it was 6.4 ± 0.3 h. Also, the “A-B permeability, fold higher relative to LPV” value at P-gp (MDCK-MDR1 cells) [3] is listed as “about 3 fold”; on MRP2 (MDCK-MRP2 cells) [5] it was “about 2.8 fold”. In addition, the “Half life … fold higher compared to LPV” value in data set [4] fell in the range of 1.6 to 1.8 fold. Also, in the data set on CYP3A4, the Km at 5 min was roughly 14.3 µM. For the same molecule, the “Cellular uptake, fold higher relative to LPV” value at P-gp (MDCK-MDR1 cells) [6] is “about 2.7 fold”.
For `CN(C)C(=O)CCSC(SCCC(=O)O)c1cccc(/C=C/c2ccc3ccc(Cl)cc3n2)c1` (stereo not shown) [MK 571], the “[3H]-LPV uptake, fold enhancement in presence of inhibitor” value on MRP2 (MDCK-MRP2 cells) [7] (25 µM inhibitor) is given as 2.5 fold; at MRP2 (MDCK-MRP2 cells) [7] (75 µM inhibitor), 3 fold.
In turn, `Cc1cccc(C)c1OCC(=O)N[C@@H](Cc1ccccc1)[C@@H](O)C[C@H](Cc1ccccc1)NC(=O)[C@H](C(C)C)N1CCCNC1=O` [LPV, lopinavir] came in with a solubility at 24 h in [1] of 40 ± 8 µg/mL (≈ 63.6 µM). For the same molecule, the Cytotoxicity entry in the data set with MDCK-WT cells (100 µM) is reported as “generated cytotoxic effects”. The “[3H]-LPV uptake in presence of increasing concentrations of test compound” value at P-gp (MDCK-MDR1 cells) [8] was “elevated significantly”; at MRP2 (MDCK-MRP2 cells) [7] (MDCK-MRP2, DPBS pH 7.4, 37 °C), “enhancement of [3H]-LPV uptake”.
As for `CC(C)(C)CC(C)(C)c1ccc(OCCO)cc1` [Triton-X], the “Reduction in absorbance (positive controls)” value in the data set with MDCK-WT cells was 90%.
Consider `CSCCC(N)C(=O)OC(CC(Cc1ccccc1)NC(=O)C(C(C)C)N1CCCNC1=O)C(Cc1ccccc1)NC(=O)COc1c(C)cccc1C` (stereo not shown) [Met-LPV, methionine-LPV], for which, in [1], the “Solubility, fold higher relative to LPV” value is on record as roughly 9 fold and the “Solubility in DDW” value stood at 362 ± 21 µg/mL (≈ 476 µM). The molecule also came in with a Degradation half life in data set [2] (pH 4, 37 °C) of 119 ± 6 h. For the same molecule, the Degradation half life in data set [2] (pH 5.5, 37 °C) worked out at 55 ± 6 h. This molecule also came in with a Degradation half life in data set [2] (pH 7.4, 37 °C) of 6.2 ± 0.4 h. Further, the “A-B permeability, fold higher relative to LPV” value on P-gp (MDCK-MDR1 cells) [3] is listed as roughly 2.3 fold. For the same molecule, in data set [4], the “Degradation rate constant in liver microsomal solution” value is given as ~3.6 ± 0.4 × 10^−^3 min^−^1; the “Intrinsic clearance (Vmax/Km)” value is on record as 0.5 mL/min/mg protein; the Km was roughly 13 µM; the “Half life … fold higher compared to LPV” value lay within 1.6 to 1.8 fold. In addition, the “A-B permeability, fold higher relative to LPV” value on MRP2 (MDCK-MRP2 cells) [5] was roughly 1.9 fold. Besides, the “Cellular uptake, fold higher relative to LPV” value at P-gp (MDCK-MDR1 cells) [6] is roughly 2.4 fold.

Broadly, the Km is the concentration of substrate that gives half-maximal velocity. In general, solubility refers to the concentration that dissolves in the medium under given conditions. A higher solubility goes with much dissolved substance. The term half-life denotes the time in which the quantity being followed falls by half. Read a high half-life as slow loss.
